In ChEMBL document CHEMBL4190372, “Discovery of a Novel Oral Glucocorticoid Receptor Modulator (AZD9567) with Improved Side Effect Profile” (J Med Chem, 2018):

Legend:
[1] = Volume of distribution at steady state in Han-Wistar rat at 0.8 mg/kg, iv; type: ADME, organism-based; details: in vivo, read-out: Vdss
[2] = biological target: T1, Mineralocorticoid receptor (Homo sapiens, UniProt P08235); assay: Displacement of [3H]-aldosterone from human mineralocorticoid receptor LBD (729 to 984 residues) after 1 hr by scintillation proximity assay
T1 sequence (P08235 whole entry): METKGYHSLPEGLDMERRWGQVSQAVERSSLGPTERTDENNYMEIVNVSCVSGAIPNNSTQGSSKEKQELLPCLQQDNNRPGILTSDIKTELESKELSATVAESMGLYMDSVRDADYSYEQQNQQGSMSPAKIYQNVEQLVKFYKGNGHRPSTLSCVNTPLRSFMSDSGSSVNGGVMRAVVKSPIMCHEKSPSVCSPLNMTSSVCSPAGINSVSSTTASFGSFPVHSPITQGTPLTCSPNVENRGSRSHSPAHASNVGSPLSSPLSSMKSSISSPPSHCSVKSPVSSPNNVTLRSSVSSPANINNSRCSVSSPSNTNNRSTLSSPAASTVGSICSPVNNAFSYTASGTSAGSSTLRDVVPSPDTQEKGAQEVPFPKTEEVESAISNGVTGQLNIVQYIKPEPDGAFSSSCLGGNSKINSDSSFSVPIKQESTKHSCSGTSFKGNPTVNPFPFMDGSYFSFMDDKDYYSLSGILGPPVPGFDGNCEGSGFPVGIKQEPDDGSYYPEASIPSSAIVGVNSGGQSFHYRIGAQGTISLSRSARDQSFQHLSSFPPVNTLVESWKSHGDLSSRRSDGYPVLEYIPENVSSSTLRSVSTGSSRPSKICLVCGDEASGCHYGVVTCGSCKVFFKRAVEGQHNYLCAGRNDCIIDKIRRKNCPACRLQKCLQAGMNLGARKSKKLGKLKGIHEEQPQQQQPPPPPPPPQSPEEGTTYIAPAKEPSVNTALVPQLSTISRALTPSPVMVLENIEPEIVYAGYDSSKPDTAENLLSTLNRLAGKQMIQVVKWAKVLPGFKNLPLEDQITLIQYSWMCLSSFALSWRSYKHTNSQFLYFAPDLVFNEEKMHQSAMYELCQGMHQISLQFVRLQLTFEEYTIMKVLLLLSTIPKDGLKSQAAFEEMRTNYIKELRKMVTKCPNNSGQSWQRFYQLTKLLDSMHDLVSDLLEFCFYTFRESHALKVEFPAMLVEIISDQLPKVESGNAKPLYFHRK

Rattus norvegicus [3] = assay: Dose normalized Cmax in Han-Wistar rat at 2.1 mg/kg, po; type: ADME, organism-based; details: in vivo
Glucocorticoid receptor = biological target: T2, Glucocorticoid receptor (Homo sapiens, UniProt P04150); assay: Transactivation of GR in cryopreserved human primary hepatocytes assessed as upregulation of TAT mRNA expression level up to 1 uM after 18 hrs by RT-qPCR analysis
T2 sequence (P04150 whole entry): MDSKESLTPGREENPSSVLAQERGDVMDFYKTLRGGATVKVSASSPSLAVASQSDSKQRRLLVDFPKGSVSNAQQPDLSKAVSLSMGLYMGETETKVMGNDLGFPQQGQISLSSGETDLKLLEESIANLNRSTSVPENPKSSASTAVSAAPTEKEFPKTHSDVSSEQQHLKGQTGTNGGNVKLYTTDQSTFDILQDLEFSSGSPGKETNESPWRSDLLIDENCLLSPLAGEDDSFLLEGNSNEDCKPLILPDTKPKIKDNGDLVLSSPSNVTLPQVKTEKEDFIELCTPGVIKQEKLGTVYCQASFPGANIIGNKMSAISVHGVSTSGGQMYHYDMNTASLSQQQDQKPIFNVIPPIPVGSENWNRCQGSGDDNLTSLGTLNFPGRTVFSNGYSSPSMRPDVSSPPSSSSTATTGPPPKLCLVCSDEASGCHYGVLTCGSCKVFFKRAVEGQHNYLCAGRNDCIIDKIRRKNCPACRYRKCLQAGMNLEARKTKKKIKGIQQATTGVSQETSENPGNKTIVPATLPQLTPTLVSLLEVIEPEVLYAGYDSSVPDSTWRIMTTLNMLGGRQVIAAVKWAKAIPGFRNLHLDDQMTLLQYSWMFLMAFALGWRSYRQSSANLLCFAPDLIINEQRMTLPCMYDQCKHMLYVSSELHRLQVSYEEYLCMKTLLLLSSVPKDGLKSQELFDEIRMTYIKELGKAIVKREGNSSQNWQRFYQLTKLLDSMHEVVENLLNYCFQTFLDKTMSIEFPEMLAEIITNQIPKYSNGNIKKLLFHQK

Estrogen receptor beta = Estrogen receptor beta (Homo sapiens, UniProt Q92731); assay: Binding affinity to human ERbeta expressed in Sf9 cells by fluoligand binding-based fluorescence polarization method
Estrogen receptor beta, sequence (Q92731 whole entry): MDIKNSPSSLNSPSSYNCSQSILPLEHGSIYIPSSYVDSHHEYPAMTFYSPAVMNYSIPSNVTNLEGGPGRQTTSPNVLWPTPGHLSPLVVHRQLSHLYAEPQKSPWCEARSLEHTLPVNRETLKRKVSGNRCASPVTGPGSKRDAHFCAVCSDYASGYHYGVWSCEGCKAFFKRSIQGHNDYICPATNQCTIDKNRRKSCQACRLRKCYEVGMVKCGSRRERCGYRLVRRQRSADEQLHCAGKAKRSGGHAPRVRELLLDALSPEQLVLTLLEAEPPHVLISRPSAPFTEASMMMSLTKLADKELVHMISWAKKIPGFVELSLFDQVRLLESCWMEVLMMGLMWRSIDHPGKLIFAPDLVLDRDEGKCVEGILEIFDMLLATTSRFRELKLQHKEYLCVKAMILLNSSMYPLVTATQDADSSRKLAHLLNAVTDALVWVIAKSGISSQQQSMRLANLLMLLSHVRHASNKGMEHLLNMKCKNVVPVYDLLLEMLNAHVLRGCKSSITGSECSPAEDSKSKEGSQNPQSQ

Rattus norvegicus [4] = assay: Dose normalized AUC (0 to infinity) in Han-Wistar rat at 2.1 mg/kg, po; type: ADME, organism-based; details: in vivo

- Vd [1]: 0.66 L/kg
- IC50 [2]: > 38 µM
- Cmax/dose (Rattus norvegicus [3]): 950 nM
- Activity (Glucocorticoid receptor): Not Active
- IC50 (Estrogen receptor beta): > 100 µM
- AUC/dose (Rattus norvegicus [4]): 5.2 µM·h
Compound: CC(C)[C@H](NC(=O)C(C)(F)F)[C@H](Oc1ccc2c(cnn2-c2ccc(=O)n(C)c2)c1)c1ccccc1 [MIZACORAT]
